Results from ChEMBL document CHEMBL4507300 (2021).

Legend:
[1] = tested on: Tyrosine-protein kinase ABL1 (Homo sapiens), P00519 [F317L]; conditions: Compound concentration 1000.0 nM
[2] = tested on: Tyrosine-protein kinase ABL1 (Homo sapiens), P00519 [M351T]; conditions: Compound concentration 1000.0 nM
[3] = tested on: Tyrosine-protein kinase ABL1 (Homo sapiens), P00519 [T315I]; conditions: Compound concentration 1000.0 nM
[4] = target: RAC-alpha serine/threonine-protein kinase (Homo sapiens) (UniProt P31749); conditions: Compound concentration 1000.0 nM
[5] = target: Serine/threonine-protein kinase B-raf (Homo sapiens) (UniProt P15056); conditions: Compound concentration 1000.0 nM
[6] = target: Calcium/calmodulin-dependent protein kinase type 1G (Homo sapiens) (UniProt Q96NX5); conditions: Compound concentration 1000.0 nM
[7] = target: Calcium/calmodulin-dependent protein kinase kinase 2 (Homo sapiens) (UniProt Q96RR4); conditions: Compound concentration 1000.0 nM
[8] = target: Cyclin-dependent kinase 11B (Homo sapiens) (UniProt P21127); conditions: Compound concentration 1000.0 nM
[9] = target: Cyclin-dependent kinase 2 (Homo sapiens) (UniProt P24941); conditions: Compound concentration 1000.0 nM
[10] = target: Dual specificity protein kinase CLK3 (Homo sapiens) (UniProt P49761); conditions: Compound concentration 1000.0 nM
Dual specificity protein kinase CLK3 (Homo sapiens), sequence (P49761 whole entry, looked up): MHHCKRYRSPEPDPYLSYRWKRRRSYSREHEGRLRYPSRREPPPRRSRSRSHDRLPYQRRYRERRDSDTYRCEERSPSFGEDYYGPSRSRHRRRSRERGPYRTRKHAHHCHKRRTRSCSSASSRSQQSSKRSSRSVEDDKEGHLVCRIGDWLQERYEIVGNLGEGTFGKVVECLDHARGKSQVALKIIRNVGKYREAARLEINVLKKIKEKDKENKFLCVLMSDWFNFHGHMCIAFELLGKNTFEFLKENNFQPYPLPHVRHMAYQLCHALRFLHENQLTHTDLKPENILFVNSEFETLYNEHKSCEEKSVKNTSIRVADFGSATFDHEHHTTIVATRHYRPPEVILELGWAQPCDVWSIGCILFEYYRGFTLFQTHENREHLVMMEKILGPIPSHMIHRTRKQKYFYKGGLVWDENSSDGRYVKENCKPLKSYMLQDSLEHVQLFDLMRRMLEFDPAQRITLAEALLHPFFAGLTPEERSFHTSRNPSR

[11] = target: Macrophage colony-stimulating factor 1 receptor (Homo sapiens) (UniProt P07333); conditions: Compound concentration 1000.0 nM
Macrophage colony-stimulating factor 1 receptor (Homo sapiens), sequence (P07333 whole entry): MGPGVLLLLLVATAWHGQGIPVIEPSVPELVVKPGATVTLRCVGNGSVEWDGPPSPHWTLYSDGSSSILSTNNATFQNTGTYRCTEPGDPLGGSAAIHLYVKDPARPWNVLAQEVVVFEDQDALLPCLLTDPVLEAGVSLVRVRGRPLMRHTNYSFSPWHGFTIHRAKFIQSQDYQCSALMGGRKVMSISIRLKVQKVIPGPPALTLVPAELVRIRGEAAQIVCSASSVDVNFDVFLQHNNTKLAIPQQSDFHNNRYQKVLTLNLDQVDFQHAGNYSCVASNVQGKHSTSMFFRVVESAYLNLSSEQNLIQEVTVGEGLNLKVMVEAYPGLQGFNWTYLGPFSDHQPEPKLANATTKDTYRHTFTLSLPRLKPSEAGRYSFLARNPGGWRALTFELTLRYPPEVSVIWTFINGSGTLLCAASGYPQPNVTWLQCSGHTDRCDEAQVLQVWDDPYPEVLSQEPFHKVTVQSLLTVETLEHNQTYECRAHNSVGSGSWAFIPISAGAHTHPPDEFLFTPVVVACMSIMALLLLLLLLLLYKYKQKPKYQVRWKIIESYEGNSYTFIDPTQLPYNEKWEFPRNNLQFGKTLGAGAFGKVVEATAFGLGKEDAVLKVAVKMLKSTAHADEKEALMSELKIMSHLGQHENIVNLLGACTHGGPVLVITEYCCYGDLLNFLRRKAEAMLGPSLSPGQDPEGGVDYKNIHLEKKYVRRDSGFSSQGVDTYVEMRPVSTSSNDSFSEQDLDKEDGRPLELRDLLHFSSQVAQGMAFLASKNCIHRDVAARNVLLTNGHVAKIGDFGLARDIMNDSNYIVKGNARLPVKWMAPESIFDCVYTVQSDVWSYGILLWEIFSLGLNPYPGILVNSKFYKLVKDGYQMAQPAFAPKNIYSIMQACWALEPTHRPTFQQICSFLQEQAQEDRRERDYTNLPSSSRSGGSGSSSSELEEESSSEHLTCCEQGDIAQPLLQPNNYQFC

[12] = target: Serine/threonine-protein kinase 17A (Homo sapiens) (UniProt Q9UEE5); conditions: Compound concentration 1000.0 nM
[13] = target: Dual specificity tyrosine-phosphorylation-regulated kinase 1A (Homo sapiens) (UniProt Q13627); conditions: Compound concentration 1000.0 nM
[14] = target: Epidermal growth factor receptor (Homo sapiens) (UniProt P00533); conditions: Compound concentration 1000.0 nM
[15] = tested on: Epidermal growth factor receptor (Homo sapiens), P00533 [G719S]; conditions: Compound concentration 1000.0 nM
[16] = target: Mitogen-activated protein kinase 6 (Homo sapiens) (UniProt Q16659); conditions: Compound concentration 1000.0 nM
Mitogen-activated protein kinase 6 (Homo sapiens), sequence (Q16659 whole entry): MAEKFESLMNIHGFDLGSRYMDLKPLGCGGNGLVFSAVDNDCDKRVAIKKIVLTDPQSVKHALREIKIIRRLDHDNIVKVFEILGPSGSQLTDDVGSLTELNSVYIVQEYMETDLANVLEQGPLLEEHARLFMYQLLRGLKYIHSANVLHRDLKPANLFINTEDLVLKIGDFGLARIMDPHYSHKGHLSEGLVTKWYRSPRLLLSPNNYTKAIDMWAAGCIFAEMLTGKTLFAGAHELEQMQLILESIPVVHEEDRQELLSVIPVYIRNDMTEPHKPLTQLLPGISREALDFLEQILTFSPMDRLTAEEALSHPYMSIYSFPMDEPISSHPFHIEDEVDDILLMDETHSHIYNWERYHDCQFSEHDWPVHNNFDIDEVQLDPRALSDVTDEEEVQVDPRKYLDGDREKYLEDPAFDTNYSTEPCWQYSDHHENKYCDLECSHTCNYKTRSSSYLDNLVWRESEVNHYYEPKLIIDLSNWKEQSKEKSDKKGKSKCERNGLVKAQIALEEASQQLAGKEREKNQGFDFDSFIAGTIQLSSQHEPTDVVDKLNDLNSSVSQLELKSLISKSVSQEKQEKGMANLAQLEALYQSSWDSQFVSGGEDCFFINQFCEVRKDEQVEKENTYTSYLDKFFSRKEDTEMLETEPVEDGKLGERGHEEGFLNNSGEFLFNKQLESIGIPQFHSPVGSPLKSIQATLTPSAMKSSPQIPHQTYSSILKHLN

[17] = target: Serine/threonine-protein kinase/endoribonuclease IRE1 (Homo sapiens) (UniProt O75460); conditions: Compound concentration 1000.0 nM
[18] = target: Homeodomain-interacting protein kinase 1 (Homo sapiens) (UniProt Q86Z02); conditions: Compound concentration 1000.0 nM
[19] = target: Insulin receptor (Homo sapiens) (UniProt P06213); conditions: Compound concentration 1000.0 nM
[20] = target: Mitogen-activated protein kinase 9 (Homo sapiens) (UniProt P45984); conditions: Compound concentration 1000.0 nM
[21] = target: Serine/threonine-protein kinase LATS2 (Homo sapiens) (UniProt Q9NRM7); conditions: Compound concentration 1000.0 nM
[22] = target: Leukocyte tyrosine kinase receptor (Homo sapiens) (UniProt P29376); conditions: Compound concentration 1000.0 nM
Leukocyte tyrosine kinase receptor (Homo sapiens), sequence (P29376 whole entry): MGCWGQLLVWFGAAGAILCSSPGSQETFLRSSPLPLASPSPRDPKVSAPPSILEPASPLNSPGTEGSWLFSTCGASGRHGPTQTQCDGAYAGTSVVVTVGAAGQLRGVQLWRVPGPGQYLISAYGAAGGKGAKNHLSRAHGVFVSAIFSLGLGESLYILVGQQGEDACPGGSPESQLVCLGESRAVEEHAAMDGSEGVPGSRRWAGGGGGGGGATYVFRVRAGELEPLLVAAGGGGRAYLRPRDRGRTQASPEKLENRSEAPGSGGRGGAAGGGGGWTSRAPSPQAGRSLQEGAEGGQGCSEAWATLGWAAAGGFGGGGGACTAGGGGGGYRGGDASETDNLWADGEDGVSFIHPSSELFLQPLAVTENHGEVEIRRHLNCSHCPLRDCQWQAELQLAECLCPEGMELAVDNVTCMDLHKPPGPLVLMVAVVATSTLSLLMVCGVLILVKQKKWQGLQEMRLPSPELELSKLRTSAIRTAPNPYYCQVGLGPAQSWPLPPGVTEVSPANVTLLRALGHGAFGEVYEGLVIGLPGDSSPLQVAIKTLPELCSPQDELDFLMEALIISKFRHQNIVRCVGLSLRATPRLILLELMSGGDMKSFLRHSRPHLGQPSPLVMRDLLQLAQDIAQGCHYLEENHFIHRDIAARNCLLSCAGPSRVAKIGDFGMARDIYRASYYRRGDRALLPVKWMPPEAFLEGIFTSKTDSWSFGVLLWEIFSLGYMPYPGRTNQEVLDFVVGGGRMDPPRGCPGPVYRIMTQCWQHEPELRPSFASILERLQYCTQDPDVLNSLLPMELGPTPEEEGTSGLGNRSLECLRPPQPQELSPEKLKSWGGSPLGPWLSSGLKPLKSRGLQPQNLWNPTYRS

[23] = target: Mitogen-activated protein kinase kinase kinase 2 (Homo sapiens) (UniProt Q9Y2U5); conditions: Compound concentration 1000.0 nM
Mitogen-activated protein kinase kinase kinase 2 (Homo sapiens), sequence (Q9Y2U5 whole entry): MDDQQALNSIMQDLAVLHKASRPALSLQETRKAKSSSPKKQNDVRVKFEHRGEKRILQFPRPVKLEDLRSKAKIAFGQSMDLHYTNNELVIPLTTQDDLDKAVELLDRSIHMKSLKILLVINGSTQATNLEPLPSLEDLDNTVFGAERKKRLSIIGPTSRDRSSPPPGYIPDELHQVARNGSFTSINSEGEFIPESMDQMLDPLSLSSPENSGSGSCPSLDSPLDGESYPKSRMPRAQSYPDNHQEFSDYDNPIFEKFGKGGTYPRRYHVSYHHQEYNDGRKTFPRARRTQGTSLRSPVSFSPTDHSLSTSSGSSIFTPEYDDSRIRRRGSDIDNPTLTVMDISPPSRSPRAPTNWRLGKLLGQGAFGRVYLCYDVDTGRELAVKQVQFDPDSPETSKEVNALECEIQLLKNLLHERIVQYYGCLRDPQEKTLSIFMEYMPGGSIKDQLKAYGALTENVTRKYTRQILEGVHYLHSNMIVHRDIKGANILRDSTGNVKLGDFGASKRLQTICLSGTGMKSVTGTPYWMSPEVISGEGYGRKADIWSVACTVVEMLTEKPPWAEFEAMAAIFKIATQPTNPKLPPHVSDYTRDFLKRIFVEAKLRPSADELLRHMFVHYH

[24] = target: Dual specificity mitogen-activated protein kinase kinase 4 (Homo sapiens) (UniProt P45985); conditions: Compound concentration 1000.0 nM
[25] = target: Macrophage-stimulating protein receptor (Homo sapiens) (UniProt Q04912); conditions: Compound concentration 1000.0 nM
[26] = target: Serine/threonine-protein kinase 24 (Homo sapiens) (UniProt Q9Y6E0); conditions: Compound concentration 1000.0 nM
[27] = target: Phosphatidylinositol 3-kinase C2 domain-containing subunit gamma (Homo sapiens) (UniProt O75747); conditions: Compound concentration 1000.0 nM
[28] = target: Phosphatidylinositol 4,5-bisphosphate 3-kinase catalytic subunit alpha isoform (Homo sapiens) (UniProt P42336); conditions: Compound concentration 1000.0 nM
[29] = tested on: Phosphatidylinositol 4,5-bisphosphate 3-kinase catalytic subunit alpha isoform (Homo sapiens), P42336 [E542K]; conditions: Compound concentration 1000.0 nM
[30] = target: Serine/threonine-protein kinase N1 (Homo sapiens) (UniProt Q16512); conditions: Compound concentration 1000.0 nM
[31] = target: Serine/threonine-protein kinase RIO1 (Homo sapiens) (UniProt Q9BRS2); conditions: Compound concentration 1000.0 nM
[32] = target: Serine/threonine-protein kinase RIO3 (Homo sapiens) (UniProt O14730); conditions: Compound concentration 1000.0 nM
[33] = target: Dual serine/threonine and tyrosine protein kinase (Homo sapiens) (UniProt Q6XUX3); conditions: Compound concentration 1000.0 nM
[34] = target: Ribosomal protein S6 kinase alpha-5 (Homo sapiens) (UniProt O75582); conditions: Compound concentration 1000.0 nM
[35] = target: Serine/threonine-protein kinase SIK2 (Homo sapiens) (UniProt Q9H0K1); conditions: Compound concentration 1000.0 nM
[36] = target: SRSF protein kinase 3 (Homo sapiens) (UniProt Q9UPE1); conditions: Compound concentration 1000.0 nM
[37] = target: Serine/threonine-protein kinase 16 (Homo sapiens) (UniProt O75716); conditions: Compound concentration 1000.0 nM
[38] = target: STE20/SPS1-related proline-alanine-rich protein kinase (Homo sapiens) (UniProt Q9UEW8); conditions: Compound concentration 1000.0 nM
[39] = target: Mitogen-activated protein kinase kinase kinase 7 (Homo sapiens) (UniProt O43318); conditions: Compound concentration 1000.0 nM
[40] = target: Tyrosine-protein kinase TXK (Homo sapiens) (UniProt P42681); conditions: Compound concentration 1000.0 nM
[41] = target: Non-receptor tyrosine-protein kinase TYK2 (Homo sapiens) (UniProt P29597); conditions: Compound concentration 1000.0 nM
Non-receptor tyrosine-protein kinase TYK2 (Homo sapiens), sequence (P29597 whole entry): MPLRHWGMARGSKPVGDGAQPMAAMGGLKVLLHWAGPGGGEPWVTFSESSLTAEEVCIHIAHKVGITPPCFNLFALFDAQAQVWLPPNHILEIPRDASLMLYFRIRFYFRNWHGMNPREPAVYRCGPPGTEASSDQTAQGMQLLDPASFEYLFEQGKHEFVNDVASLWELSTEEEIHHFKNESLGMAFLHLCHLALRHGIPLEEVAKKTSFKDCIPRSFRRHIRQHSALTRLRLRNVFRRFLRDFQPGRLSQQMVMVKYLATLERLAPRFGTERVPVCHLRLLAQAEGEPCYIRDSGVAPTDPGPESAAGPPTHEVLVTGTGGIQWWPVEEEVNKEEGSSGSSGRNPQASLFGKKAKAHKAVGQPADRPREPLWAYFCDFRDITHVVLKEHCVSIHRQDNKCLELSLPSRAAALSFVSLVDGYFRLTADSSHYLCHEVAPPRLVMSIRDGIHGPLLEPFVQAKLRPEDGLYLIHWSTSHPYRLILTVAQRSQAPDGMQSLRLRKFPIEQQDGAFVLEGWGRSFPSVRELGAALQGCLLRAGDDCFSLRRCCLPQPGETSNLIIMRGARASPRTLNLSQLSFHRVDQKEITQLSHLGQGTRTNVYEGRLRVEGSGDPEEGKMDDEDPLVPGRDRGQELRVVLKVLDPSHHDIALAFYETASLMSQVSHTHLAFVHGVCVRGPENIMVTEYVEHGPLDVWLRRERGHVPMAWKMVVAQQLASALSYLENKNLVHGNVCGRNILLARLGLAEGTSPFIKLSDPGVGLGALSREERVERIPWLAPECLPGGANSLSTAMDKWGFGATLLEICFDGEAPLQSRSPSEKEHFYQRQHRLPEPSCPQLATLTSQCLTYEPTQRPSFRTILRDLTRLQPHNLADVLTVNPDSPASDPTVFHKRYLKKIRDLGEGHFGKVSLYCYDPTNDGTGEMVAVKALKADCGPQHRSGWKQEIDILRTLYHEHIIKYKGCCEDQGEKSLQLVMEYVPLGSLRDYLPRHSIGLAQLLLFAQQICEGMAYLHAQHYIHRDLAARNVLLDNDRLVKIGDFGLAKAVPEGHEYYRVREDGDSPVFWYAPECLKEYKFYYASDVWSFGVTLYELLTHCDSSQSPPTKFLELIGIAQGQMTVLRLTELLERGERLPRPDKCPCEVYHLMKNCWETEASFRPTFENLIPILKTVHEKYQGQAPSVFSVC

[42] = target: Serine/threonine-protein kinase WNK3 (Homo sapiens) (UniProt Q9BYP7); conditions: Compound concentration 1000.0 nM
[43] = target: 5-hydroxytryptamine receptor 3A (Homo sapiens) (UniProt P46098); conditions: Compound concentration 10.0 uM
[44] = target: 5-hydroxytryptamine receptor 6 (Homo sapiens) (UniProt P50406); conditions: Compound concentration 10.0 uM
[45] = target: Muscarinic acetylcholine receptor M5 (Homo sapiens) (UniProt P08912); conditions: Compound concentration 10.0 uM

COc1cccc(CNC(=O)c2nc3scc(COCc4ccc(C(=O)O)cc4)c3c(=O)[nH]2)c1 [T-26c]
inactive: residual activity [1] 78.7% | residual activity [2] 84.4% | residual activity [3] 77.5% | residual activity [4] 99.9% | residual activity [5] 72.8% | residual activity [6] 100% | residual activity [7] 100% | residual activity [8] 85.4% | residual activity [9] 100% | residual activity [10] 100% | residual activity [11] 100% | residual activity [12] 73.1% | residual activity [13] 89.5% | residual activity [14] 69.3% | residual activity [15] 100% | residual activity [16] 99.9% | residual activity [17] 89.7% | residual activity [18] 88.4% | residual activity [19] 76.2% | residual activity [20] 97.1% | residual activity [21] 86.2% | residual activity [22] 70.6% | residual activity [23] 65.5% | residual activity [24] 59.7% | residual activity [25] 81.9% | residual activity [26] 100% | residual activity [27] 100% | residual activity [28] 78.8% | residual activity [29] 76.1% | residual activity [30] 100% | residual activity [31] 52.1% | residual activity [32] 63.2% | residual activity [33] 54.5% | residual activity [34] 93.1% | residual activity [35] 86.4% | residual activity [36] 70.1% | residual activity [37] 87.2% | residual activity [38] 100% | residual activity [39] 60.2% | residual activity [40] 87.7% | residual activity [41] 79.8% | residual activity [42] 83.6% | inhibition [43] 6.87% | inhibition [44] 15.8% | inhibition [45] -7.42%
